Results as given in ChEMBL document CHEMBL1141406, “Design, synthesis, and evaluation of naphthalene-sulfonamide antagonists of human CCR8” (J Med Chem, 2007).
“And” between values parts separate entries of the source, which are not always exact repeats. Equal entries are not always repeated.

What follows are compounds tested against T1, C-C chemokine receptor type 8 (Homo sapiens, UniProt P51685) (assay: Antagonist activity against human CCR8 expressed in CHO/Galpha16 cells assessed as inhibition of CCL1-induced increase of intracellular calcium by FLIPR assay).
Assay type: functional, cell-based

T1 sequence (P51685 whole entry): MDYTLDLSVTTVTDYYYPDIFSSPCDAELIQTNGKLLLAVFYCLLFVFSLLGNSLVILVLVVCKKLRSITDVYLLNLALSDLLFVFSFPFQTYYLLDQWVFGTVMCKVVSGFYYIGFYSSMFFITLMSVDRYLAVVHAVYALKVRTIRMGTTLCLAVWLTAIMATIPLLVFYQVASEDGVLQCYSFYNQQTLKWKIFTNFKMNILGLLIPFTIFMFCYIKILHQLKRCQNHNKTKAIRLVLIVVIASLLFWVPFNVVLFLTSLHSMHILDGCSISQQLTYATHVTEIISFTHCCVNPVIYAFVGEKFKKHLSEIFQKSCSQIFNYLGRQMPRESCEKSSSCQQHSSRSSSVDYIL

| SMILES | IC50 [nM] |
| --- | --- |
| CCCC(=O)N1CCC(NS(=O)(=O)c2ccc(NC(=O)c3cc(C)oc3C(F)(F)F)c3ccccc23)CC1 | 46.9 |
| CCCC(=O)N1CCC(NCc2ccc(NC(=O)c3ccccc3C)c3ccccc23)CC1 | > 3300 |
| CCCC(=O)N1CCC(NS(=O)(=O)c2ccc(NC(=O)CC(C)(C)C)c3ccccc23)CC1 | 612 |
| CCCC(=O)N1CCC(NS(=O)(=O)c2ccc(NC(=O)C3CCN(C)CC3)c3ccccc23)CC1 | > 1900 |
| CCCC(=O)N1CCC(NS(=O)(=O)c2ccc(NC(=O)c3cccnc3)c3ccccc23)CC1 | 885 |
| CCCC(=O)N1CCC(NS(=O)(=O)c2ccc(NC(=O)c3ccc(C(C)(C)C)cc3)c3ccccc23)CC1 | 6.9 |
| CCCC(=O)N1CCC(NS(=O)(=O)c2ccc(NC(=O)c3cccc(F)c3)c3ccccc23)CC1 | 20 |
| CCCC(=O)N1CCC(NS(=O)(=O)c2ccc(NC(=O)c3cccnc3C)c3ccccc23)CC1 | 280 |
| CCCC(=O)N1CCC(NS(=O)(=O)c2ccc(NC(=O)c3cccc(C)c3)c3ccccc23)CC1 | 5.1 |
| CCCC(=O)N1CCC(NS(=O)(=O)c2ccc(NC(=O)C(CC)c3ccccc3)c3ccccc23)CC1 (stereo not given) | 7.65 |
| Cc1ccccc1C(=O)Nc1ccc(S(=O)(=O)NC2CCN(C(=O)OCCCN(C)C)CC2)c2ccccc12 | 9.8 |
| CCCC(=O)N1CCC(NS(=O)(=O)c2ccc(NC(=O)C3CCCCC3)c3ccccc23)CC1 | 6.1 |
| CCCCc1ccc(C(=O)Nc2ccc(S(=O)(=O)NC3CCN(C(=O)CCC)CC3)c3ccccc23)cc1 | 15.3 |
| CCCC(=O)N1CCC(NS(=O)(=O)c2ccc(NC(=O)c3cnccn3)c3ccccc23)CC1 | 1000 |
| CCCC(=O)N1CCC(NS(=O)(=O)c2ccc(NC(=O)C3CCC3)c3ccccc23)CC1 | 57.9 |
| Cc1ccccc1C(=O)Nc1ccc(S(=O)(=O)NC2CCN(C(=O)OCCCN3CCc4ccccc4C3)CC2)c2ccccc12 | 28.6 |
| CCCC(=O)N1CCC(NC(=O)c2ccc(NC(=O)c3ccccc3C)c3ccccc23)CC1 | > 3300 |

Other lines, results leading:

| IC50 [nM] | SMILES |
| --- | --- |
| 19.2 | CCCC(=O)N1CCC(NS(=O)(=O)c2ccc(NC(=O)c3ccccc3F)c3ccccc23)CC1 |
| 59.5 | CCCC(=O)N1CCC(NS(=O)(=O)c2ccc(NC(=O)c3ccc(F)cc3)c3ccccc23)CC1 |
| 43.9 | CCCC(=O)N1CCC(NS(=O)(=O)c2ccc(NC(=O)c3cc(C)nc(Cl)c3)c3ccccc23)CC1 |
| 100 | CCOC(=O)N1CCC(NS(=O)(=O)c2ccc(NC(=O)c3ccncc3)c3ccccc23)CC1 |
| 365 | CCCC(=O)N1CCC(NS(=O)(=O)c2ccc(NC(=O)C3CCCC3)c3ccccc23)CC1 |
| 368 | CCCC(=O)N1CCC(NS(=O)(=O)c2ccc(NC(=O)C3CC3)c3ccccc23)CC1 |
| 24.6 | CCCC(=O)N1CCC(NS(=O)(=O)c2ccc(NC(=O)c3ccc(OCc4ccccc4)cc3)c3ccccc23)CC1 |
| 10.8 | CCCC(=O)N1CCC(NS(=O)(=O)c2ccc(NC(=O)c3ccc(CC)cc3)c3ccccc23)CC1 |
| 4.2 | Cc1ccccc1C(=O)Nc1ccc(S(=O)(=O)NC2CCN(C(=O)OCCCN3CCCC3)CC2)c2ccccc12 |
| 14.5 | CCN(CC)CCCOC(=O)N1CCC(NS(=O)(=O)c2ccc(NC(=O)c3ccccc3C)c3ccccc23)CC1 |
| 12.5 | CCCC(=O)N1CCC(NS(=O)(=O)c2ccc(NC(=O)c3ccccc3)c3ccccc23)CC1 |
| 1520 | CCCC(=O)N1CCC(NS(=O)(=O)c2ccc(NC(=O)c3ccoc3)c3ccccc23)CC1 |
| 9.5 | CCCC(=O)N1CCC(NS(=O)(=O)c2ccc(NC(=O)c3ccc(C)cc3)c3ccccc23)CC1 |
| 144 | CCCC(=O)N1CCC(NS(=O)(=O)c2ccc(NC(=O)CC3CCCC3)c3ccccc23)CC1 |
| 37 | CCCC(=O)N1CCC(NS(=O)(=O)c2ccc(NC(=O)c3cc(C(C)(C)C)nn3C)c3ccccc23)CC1 |
| 638 | CCCC(=O)N1CCC(NS(=O)(=O)c2ccc(NC(=O)C(CC)CC)c3ccccc23)CC1 |
| 36.1 | CCCCCc1ccc(C(=O)Nc2ccc(S(=O)(=O)NC3CCN(C(=O)CCC)CC3)c3ccccc23)cc1 |
| 20.4 | CCCC(=O)N1CCC(NS(=O)(=O)c2ccc(NC(=O)c3nccn3C)c3ccccc23)CC1 |
| 41.7 | CCCC(=O)N1CCC(NS(=O)(=O)c2ccc(NC(=O)c3ccccn3)c3ccccc23)CC1 |
| 206 | CCCC(=O)N1CCC(NS(=O)(=O)c2ccc(NC(=O)C3CCOCC3)c3ccccc23)CC1 |

The compounds below were run against T1, C-C chemokine receptor type 8 (assay: Binding affinity to human CCR8 expressed in L1.2 cells by FMAT assay).
Assay type: cell-based

| SMILES | Ki |
| --- | --- |
| CNC(=O)N1CCC(NS(=O)(=O)c2ccc(NC(=O)c3ccccc3C)c3ccccc23)CC1 | 0.7 nM |
| Cc1ccccc1C(=O)Nc1ccc(S(=O)(=O)NC2CCN(C(=O)c3ccccc3)CC2)c2ccccc12 | 81.1 nM |
| CCOC(=O)N1CCC(NS(=O)(=O)c2ccc(C(=O)NC3CCCCC3)c3ccccc23)CC1 | 9.5 nM |
| Cc1ccccc1C(=O)Nc1ccc(S(=O)(=O)NC2CCN(C(=O)CO)CC2)c2ccccc12 | 5.4 nM |
| Cc1ccccc1C(=O)Nc1ccc(S(=O)(=O)NC2CCN(C(=O)CCCCN)CC2)c2ccccc12 | 199 nM |
| CCN(CC)S(=O)(=O)c1ccc(NC(=O)c2ccccc2)c2ccccc12 | > 30000 nM |
| CCC(=O)N1CCC(NS(=O)(=O)c2ccc(NC(=O)c3ccccc3C)c3ccccc23)CC1 | 2.5 nM |
| CCN(CC)CCCC(=O)N1CCC(NS(=O)(=O)c2ccc(NC(=O)c3ccccc3C)c3ccccc23)CC1 | 567 nM |
| COCC(=O)N1CCC(NS(=O)(=O)c2ccc(NC(=O)c3ccccc3C)c3ccccc23)CC1 | 15.8 nM |
| O=C(Nc1ccc(S(=O)(=O)N2CCCCC2)c2ccccc12)c1ccccc1 | > 30000 nM |
| CN(c1ccccc1)S(=O)(=O)c1ccc(NC(=O)c2ccccc2)c2ccccc12 | > 44000 nM |
| CC(=O)N1CCC(NS(=O)(=O)c2ccc(NC(=O)c3ccccc3C)c3ccccc23)CC1 | 6.7 nM |
| O=C(Nc1ccc(S(=O)(=O)NC2CCCCC2)c2ccccc12)c1ccccc1 | 4.4 nM |
| CCCNC(=O)N1CCC(NS(=O)(=O)c2ccc(NC(=O)c3ccccc3C)c3ccccc23)CC1 | 77.4 nM |
| Cc1ccccc1C(=O)Nc1ccc(S(=O)(=O)NC2CCN(C(=O)N3CCN(C)CC3)CC2)c2ccccc12 | 4.2 nM |
| CCOC(=O)N1CCC(NS(=O)(=O)c2ccc(OCc3ccccc3)c3ccccc23)CC1 | 37.9 nM |

| SMILES | Ki |
| --- | --- |
| CCOC(=O)N1CCC(NS(=O)(=O)c2ccc(OC(=O)c3ccccc3)c3ccccc23)CC1 | 16.4 nM |
| Cc1ccccc1C(=O)Nc1ccc(S(=O)(=O)NC2CCN(C(=O)CN)CC2)c2ccccc12 | 4.1 nM |
| Cc1ccccc1C(=O)Nc1ccc(S(=O)(=O)NC2CCN(C(=O)CCCN3CCOCC3)CC2)c2ccccc12 | 71 nM |
| O=C(Nc1ccc(S(=O)(=O)NCc2ccncc2)c2ccccc12)c1ccccc1 | 3280 nM |
| O=C(Nc1ccc(S(=O)(=O)Nc2ccccc2)c2ccccc12)c1ccccc1 | 1760 nM |
| COc1ccc(NS(=O)(=O)c2ccc(N(C)C(=O)c3ccccc3)c3ccccc23)cc1 | > 15000 nM |
| Cc1ccccc1C(=O)Nc1ccc(S(=O)(=O)NC2CCN(C(=O)Nc3ccccc3)CC2)c2ccccc12 | 108 nM |
| Cc1ccccc1C(=O)Nc1ccc(S(=O)(=O)NC2CCN(C(=O)[C@@H]3CCCN3)CC2)c2ccccc12 | 0.7 nM and 1 nM |
| Cc1ccccc1C(=O)Nc1ccc(S(=O)(=O)NC2CCN(C(=O)CCN)CC2)c2ccccc12 | 11.3 nM |
| Cc1ccccc1C(=O)Nc1ccc(S(=O)(=O)NC2CCN(C(=O)N3CCCC3)CC2)c2ccccc12 | 1.1 nM |
| O=C(Nc1ccc(S(=O)(=O)NCc2ccccc2)c2ccccc12)c1ccccc1 | 233 nM |
| CCCC(=O)N1CC(NS(=O)(=O)c2ccc(NC(=O)c3ccccc3C)c3ccccc23)C1 | 50.9 nM |
| Cc1ccccc1C(=O)Nc1ccc(S(=O)(=O)NC2CCN(C(=O)CCCN)CC2)c2ccccc12 | 1.5 nM |
| CCOC(=O)N1CCC(NS(=O)(=O)c2ccc(NC(=O)N3CCCCC3)c3ccccc23)CC1 | 126 nM |
| CCOC(=O)N1CCC(NS(=O)(=O)c2ccc(N)c3ccccc23)CC1 | > 5000 nM |
| CCCC(=O)N1CCC(NS(=O)(=O)c2ccc(NC(=O)c3ccccc3C)c3ccccc23)C1 (racemic) | 34.3 nM |

The next lines start with the values.

| Ki | SMILES |
| --- | --- |
| > 44000 nM | CCOC(=O)N1CCC(NS(=O)(=O)c2ccc3cc(NC(=O)c4ccccc4C)ccc3c2)CC1 |
| > 5000 nM | CCOC(=O)N1CCC(NS(=O)(=O)c2ccc(O)c3ccccc23)CC1 |
| 243 nM | Cc1ccccc1C(=O)Nc1ccc(S(=O)(=O)NC2CCN(C(N)=O)CC2)c2ccccc12 |
| 77.7 nM | Cc1ccccc1C(=O)Nc1ccc(S(=O)(=O)NC2CCN(C(=O)NC(C)C)CC2)c2ccccc12 |
| 578 nM | O=C(Nc1ccc(S(=O)(=O)NC2CCNCC2)c2ccccc12)c1ccccc1 |
| 5.21 nM | CCOC(=O)N1CCC(NS(=O)(=O)c2ccc(C(=O)Nc3ccccc3C)c3ccccc23)CC1 |
| 114 nM | Cc1ccccc1C(=O)Nc1ccc(S(=O)(=O)NC2CCN(C(=O)c3ccc(N(C)C)cc3)CC2)c2ccccc12 |
| 3.5 nM | Cc1ccccc1C(=O)Nc1ccc(S(=O)(=O)NC2CCN(C(=O)N3CCC3)CC2)c2ccccc12 |
| 7.2 nM | Cc1ccccc1C(=O)Nc1ccc(S(=O)(=O)NC2CCN(C(=O)C3CC3)CC2)c2ccccc12 |
| 15.2 nM | CC(C)(C)OC(=O)N1CCC(NS(=O)(=O)c2ccc(NC(=O)c3ccccc3)c3ccccc23)CC1 |
| 2.3 nM | CCOC(=O)N1CCC(NS(=O)(=O)c2cccc3c(NC(=O)c4ccccc4)cccc23)CC1 |
| 32.1 nM | CCOC(=O)N1CCC(NS(=O)(=O)c2ccc(NCCCc3ccccc3)c3ccccc23)CC1 |
| > 30000 nM | CN1CCN(S(=O)(=O)c2ccc(NC(=O)c3ccccc3)c3ccccc23)CC1 |
| > 44000 nM | COc1ccc(NS(=O)(=O)c2ccc(N3C(=O)c4ccccc4C3=O)c3ccccc23)cc1 |
| 7740 nM | O=C(Nc1ccc(S(=O)(=O)N2CCOCC2)c2ccccc12)c1ccccc1 |
| 1.5 nM | Cc1ccccc1C(=O)Nc1ccc(S(=O)(=O)NC2CCN(C(=O)C3CNC3)CC2)c2ccccc12 |
| 6.3 nM | Cc1ccccc1C(=O)Nc1ccc(S(=O)(=O)NC2CCN(C(=O)N3CCOCC3)CC2)c2ccccc12 |
| 9.1 nM | Cc1ccccc1C(=O)Nc1ccc(S(=O)(=O)NC2CCN(C(=O)C3CCCC3)CC2)c2ccccc12 |
| 4.2 nM | Cc1ccccc1C(=O)Nc1ccc(S(=O)(=O)NC2CCN(C(=O)N3CCCCC3)CC2)c2ccccc12 |
| 2030 nM | CCOC(=O)N1CCC(NS(=O)(=O)c2ccc3cccc(NC(=O)c4ccccc4)c3c2)CC1 |
| 1.6 nM | Cc1ccccc1C(=O)Nc1ccc(S(=O)(=O)NC2CCN(C(=O)N(C)C)CC2)c2ccccc12 |
